Data reported in paper PMC12951568, “Identifying Structural Factors Governing the Photodynamic Activity of Phthalocyanines” (Journal of Medicinal Chemistry, 2026).
Read-outs that look alike come from different tables or passages of the source.

What was measured:
[1] = ref number not given, cited from earlier work; for ΦΔ(EtOH): in EtOH
[2] = Absorption and fluorescence emission spectra in DMF; format: physicochemical; conditions: in DMF
Procedure: (§1) An absorption spectrum of 2.475 mL of solvent (water, DMF, or PBS) was taken (i.e., absorption spectrum of baseline); then, 25 μL of stock solution was added to reach the final concentration of 1 μM in the cuvette, and the absorption and emission spectra were taken. Baseline of the solvent was subtracted from the obtained absorption spectrum to get the final absorption spectrum of the sample.

[3] = Fluorescence quantum yield, comparative method; format: physicochemical; conditions: in DMF; ZnPc as reference
Outline: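 ΦF determined by the comparative method against ZnPc (ΦF 0.32 in THF), using integrated emission area, absorbance at the excitation wavelength and solvent refractive index. Q-band absorbance kept below 0.05; estimated error ± 15%.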

[4] = Fluorescence lifetime in DMF; format: physicochemical
From the text: 1 Photophysical Data of Investigated Derivatives in DMF ^a | column: τF1/ns; τF2/ns

[5] = Quantum yield of singlet oxygen production, comparative method with DPBF scavenger; format: physicochemical; conditions: in DMF, ZnPc as reference
Outline: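 Dye added from 100 μM DMF stock (or DMF/water, water); irradiated under stirring with xenon lamp through water filter and OG530 cut-off (>523 nm). DPBF decay followed at 415 nm; ΦΔ from ln(A0/At) slopes versus reference, normalised to absorbed light summed over 523–850 nm; triplicate means, ±10% error.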

[6] = Log P, partition between n-octanol and PBS; format: physicochemical; conditions: partition coefficient between 1-octanol and PBS
Outline: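 Sample from 100 μM stock added to equal volumes of n-octanol and PBS, vortexed 5 min at rt, centrifuged. Each layer diluted into DMF and emission spectra recorded; log P taken as log of octanol/PBS integrated fluorescence ratio, mean of triplicates.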

[7] = molecular target: bovine serum albumin (BSA) (Bos taurus, UniProt P02769); test: Interaction with bovine serum albumin (absorption and emission spectra in PBS); format: binding; conditions: 1 μM Pc in PBS, BSA 17.5, 35 and 100 μM
[8] = tested on: HeLa (human cervical carcinoma); test: Photodynamic activity (phototoxicity, neutral red uptake) on HeLa; format: cell-based; conditions: for EC50: 12 h incubation, Xe-lamp 15 min, λ > 570 nm, 11.2 J/cm^2, mean ± SD, t.w. = this work
Procedure: (§2) Detailed in vitro studies involving subcellular localization and determination of the EC50 in three different cell lines (human cervical carcinoma–HeLa, human breast adenocarcinoma–MCF-7, and human skin melanoma–SK-MEL-28) were performed. A broadband light source (ozone-free 450 W Xe-lamp, Newport) equipped with the long-pass filter Schott OG570 was used (12.4 mW/cm^2, 15 min, 11.2 J/cm^2).
(§3) For the cytotoxicity experiments (phototoxicity), cells were seeded at 100 μL per well into 96-well plates (TPP, Switzerland) at a density of 7.5 × 10^3 (HeLa) or 1.0 × 10^4 (MCF-7 and SK-MEL-28) cells per well. Cells were left to grow for 24 h (until they reached confluency) in a controlled environment of a CO2 incubator (37 °C, 5% CO2 atmosphere, constant high humidity). Subsequently, studied compounds were added in a wide concentration range and incubated with the cells for 12 h. Cells were washed; fresh cell culture medium was added, and the cells were irradiated using a 450 W Xe lamp (Newport, USA). The lamp was equipped with a long pass filter (Newport OG570) and an 8 cm water filter (λ > 570 nm, 12.4 mW/cm^2, 15 min, 11.2 J/cm^2). Cellular viability was assessed after an additional 24 h by the neutral red (NR; Sigma, Merck, USA) uptake assay. At least three independent experiments, each in triplicate, were performed. The soluble NR was measured at λ = 540 nm using a Tecan Infinite 200 M plate reader (Tecan, Austria). The viability of each experimental group was expressed as the percentage of the untreated cells (100% viability) after subtraction of the signal from cells treated with a lethal dose of hydrogen peroxide (0% viability). […] EC50 values were calculated, and graphs were created by using GraphPad Prism 10.3.1 (Graph Pad software, USA).

[9] = tested on: SK-MEL-28 (human skin melanoma); test: Photodynamic activity (phototoxicity, neutral red uptake) on SK-MEL-28; format: cell-based; conditions: 12 h incubation, Xe-lamp 15 min, λ > 570 nm, 11.2 J/cm^2, mean ± SD, t.w. = this work
Procedure: as §2, §3

[10] = tested on: HeLa (human cervical carcinoma); conditions: 12 h incubation, Xe-lamp 15 min, λ > 570 nm, 11.2 J/cm^2; mean ± SD; determined previously under the same conditions at the same workplace and published; ref number not given; read-out: EC50 (nM) HeLa; cited from earlier work
[11] = tested on: MCF-7 (human breast adenocarcinoma); design: method as in number not printed in Table 2; conditions: 12 h incubation, Xe-lamp 15 min, λ > 570 nm, 11.2 J/cm^2; mean ± SD; determined previously under the same conditions at the same workplace and published; ref number not given; cited from earlier work
[12] = tested on: MCF-7 (human breast adenocarcinoma); test: Photodynamic activity (phototoxicity, neutral red uptake) on MCF-7; format: cell-based; conditions: for EC50: 12 h incubation, Xe-lamp 15 min, λ > 570 nm, 11.2 J/cm^2, mean ± SD, t.w. = this work
Procedure: as §2, §3

[13] = Aggregation / monomerization in aqueous media (spectra in water and PBS); format: physicochemical; conditions: 1 μM
Procedure: as §1

bovine serum albumin (BSA), sequence (P02769 25-607): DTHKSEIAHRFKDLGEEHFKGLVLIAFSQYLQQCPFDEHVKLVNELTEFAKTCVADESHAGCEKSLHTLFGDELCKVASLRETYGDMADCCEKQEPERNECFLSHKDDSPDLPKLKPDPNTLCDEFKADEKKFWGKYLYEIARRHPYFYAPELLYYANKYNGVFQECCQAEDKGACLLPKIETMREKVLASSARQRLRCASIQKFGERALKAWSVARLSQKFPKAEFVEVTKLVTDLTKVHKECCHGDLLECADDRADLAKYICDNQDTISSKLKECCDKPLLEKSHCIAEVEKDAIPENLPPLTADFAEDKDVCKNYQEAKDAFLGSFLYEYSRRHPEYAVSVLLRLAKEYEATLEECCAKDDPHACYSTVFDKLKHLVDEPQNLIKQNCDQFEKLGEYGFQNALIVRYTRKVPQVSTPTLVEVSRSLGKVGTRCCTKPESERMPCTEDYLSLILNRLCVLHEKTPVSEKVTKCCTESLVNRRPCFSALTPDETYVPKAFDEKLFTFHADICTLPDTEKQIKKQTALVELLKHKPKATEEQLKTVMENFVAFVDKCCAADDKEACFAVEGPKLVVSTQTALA

| Molecule | λF, fluorescence emission maximum [2] [nm] | ΦF, fluorescence quantum yield [3] | τF1, fluorescence lifetime (relative amplitude in brackets) [4] | τF2, fluorescence lifetime (relative amplitude in brackets) [4] | ΦΔ, quantum yield of singlet oxygen production [5] | Log P [6] | EC50 [9] [nM] | EC50 [10] [nM] | EC50 [11] [nM] | ε, extinction coefficient [2] | λA, absorption maximum in the Q-band [2] [nm] | ΦΔ(EtOH) [1] | EC50 [12] [nM] | also measured |
| --- | --- | --- | --- | --- | --- | --- | --- | --- | --- | --- | --- | --- | --- | --- |
| O=C([O-])c1c(Cl)c(Cl)c(Cl)c(Cl)c1-c1c2cc(I)c(=O)c(I)c-2oc2c(I)c([O-])c(I)cc12.[Na+].[Na+] [Rose Bengal] |  |  |  |  |  |  |  |  |  |  |  |  |  | ΦΔ of the reference standard ([1]; in DMF): 0.47 |
| O=C([O-])c1cc(Oc2cc3c(cc2Oc2cc(C(=O)[O-])cc(C(=O)[O-])c2)C2=Nc4c5ccccc5c5[n]4[Zn][n]4c(c6ccccc6c4=NC3=N2)=NC2=NC(=N5)c3ccccc32)cc(C(=O)[O-])c1.[Na+].[Na+].[Na+].[Na+] [A1Zn] | 682 | 0.035 | 0.44 (15%) ns | 2.51 (85%) ns | 0.26 | –2.70 | 530 ± 30 | 290 ± 78 | 453 ± 26 |  |  |  |  | Interaction with BSA: disaggregation/monomerization and changes in absorption and fluorescence emission spectra [7]: complete; fold higher photodynamic activity vs symmetrical hydrophilic counterparts ([8]; HeLa, unsymmetrical anionic A1Zn, A2Zn vs A3Zn, A4Zn): ~21 |
| Cc1cc(Cn2c[n+](C)cn2)c(Oc2cc3c(cc2Oc2c(Cn4c[n+](C)cn4)cc(C)cc2Cn2c[n+](C)cn2)C2=Nc4c5cc(Oc6c(Cn7c[n+](C)cn7)cc(C)cc6Cn6c[n+](C)cn6)c(Oc6c(Cn7c[n+](C)cn7)cc(C)cc6Cn6c[n+](C)cn6)cc5c5[n]4[Zn][n]4c(c6cc(Oc7c(Cn8c[n+](C)cn8)cc(C)cc7Cn7c[n+](C)cn7)c(Oc7c(Cn8c[n+](C)cn8)cc(C)cc7Cn7c[n+](C)cn7)cc6c4=NC4=NC(=N5)c5cc(Oc6c(Cn7c[n+](C)cn7)cc(C)cc6Cn6c[n+](C)cn6)c(Oc6c(Cn7c[n+](C)cn7)cc(C)cc6Cn6c[n+](C)cn6)cc54)=NC3=N2)c(Cn2c[n+](C)cn2)c1.[I-].[I-].[I-].[I-].[I-].[I-].[I-].[I-].[I-].[I-].[I-].[I-].[I-].[I-].[I-].[I-] [C13Zn] | 687 | 0.20 | 0.60 (4%) ns | 2.27 (96%) ns | 0.37 | –3.47 | 56 ± 6 | 12 ± 4 | 5.3 ± 0.8 | 236 490 M^–1cm^–1 | 679 |  |  |  |
| C=Cc1c(C)c2cc3nc(cc4[nH]c(cc5nc(cc1[nH]2)C(C)=C5CCC(=O)O)c(CCC(=O)OC)c4C)[C@@]1(C)C3=CC=C(C(=O)OC)[C@H]1C(=O)OC [verteporfin, reference compound] | 696 | 0.18 | 6.05 ns |  |  |  |  | 36 ± 10 |  |  | 690 | 0.51–0.67 |  | logP ([6]; n-octanol/PBS buffer): 2.51; EC50 ([12]; Homo sapiens, MCF7, light or radiation study): 33 ± 3 nM; EC50 ([9]; Homo sapiens, SK-MEL-28, light or radiation study): 21 ± 3 nM |
| temoporfin [reference compound] | 656 | 0.24 | 9.66 ns |  |  | 1.40 | 103 ± 17 | 45 ± 7 |  |  | 651 | 0.51–0.67 | 210 ± 74 |  |
| protoporhyrin IX [PpIX, reference compound] | 634 | 0.12 |  |  |  | 1.06 | 6200 ± 300 |  |  |  | 630 | 0.51–0.67 | 5700 ± 800 | EC50 [8]: 5500 ± 600 nM |
| C[n+]1cccc(Oc2cc3c(cc2Oc2ccc[n+](C)c2)C2=Nc4c5cc(Oc6ccc[n+](C)c6)c(Oc6ccc[n+](C)c6)cc5c5[n]4[Zn][n]4c(c6cc(Oc7ccc[n+](C)c7)c(Oc7ccc[n+](C)c7)cc6c4=NC4=NC(=N5)c5cc(Oc6ccc[n+](C)c6)c(Oc6ccc[n+](C)c6)cc54)=NC3=N2)c1.[I-].[I-].[I-].[I-].[I-].[I-].[I-].[I-] [C6Zn] | 683 | 0.001 | 0.07 (3%) ns | 2.84 (97%) ns | 0.02 | –2.59 | 150 ± 50 |  |  | 41 730 M^–1cm^–1 | 681 |  | 110 ± 30 | aggregation / monomeric state [13]: did not sufficiently suppress aggregation; EC50 [8]: 58 ± 20 nM |
| Cc1cc(Cn2cc[n+](C)c2)c(Oc2cc3c(cc2Oc2c(Cn4cc[n+](C)c4)cc(C)cc2Cn2cc[n+](C)c2)C2=Nc4c5cc(Oc6c(Cn7cc[n+](C)c7)cc(C)cc6Cn6cc[n+](C)c6)c(Oc6c(Cn7cc[n+](C)c7)cc(C)cc6Cn6cc[n+](C)c6)cc5c5[n]4[Zn][n]4c(c6cc(Oc7c(Cn8cc[n+](C)c8)cc(C)cc7Cn7cc[n+](C)c7)c(Oc7c(Cn8cc[n+](C)c8)cc(C)cc7Cn7cc[n+](C)c7)cc6c4=NC4=NC(=N5)c5cc(Oc6c(Cn7cc[n+](C)c7)cc(C)cc6Cn6cc[n+](C)c6)c(Oc6c(Cn7cc[n+](C)c7)cc(C)cc6Cn6cc[n+](C)c6)cc54)=NC3=N2)c(Cn2cc[n+](C)c2)c1.[I-].[I-].[I-].[I-].[I-].[I-].[I-].[I-].[I-].[I-].[I-].[I-].[I-].[I-].[I-].[I-] [C12Zn] | 687 | 0.20 | 0.62 (7%) ns | 2.23 (93%) ns | 0.48 | –2.08 | 45 ± 7 | 37 ± 6 | 11 ± 3 | 244 030 M^–1cm^–1 | 679 |  |  | increase in activity of C12Zn in comparison with C3Zn (fold) ([8]; HeLa cells): 1.3; increase in activity of C12Zn in comparison with C3Zn (fold) ([12]; MCF-7 cells): 2 |
